Experimental data reported in patent US12325708B2, “Adenosine 2 receptor antagonists” (Nektar Therapeutics, priority 2019, dated 2025).

Experiments:
[1] = target: T1, A2A receptor (Homo sapiens, UniProt P29274); assay: Radioligand receptor binding assay, A2A receptor; settings: cell membranes overexpressing A2A receptor, read-out: Potency Ki A2A
T1 construct: purchased
In short: (§1)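 Membranes from cell lines overexpressing human A2A, A1 or A3 receptors were incubated 60 min at room temperature with the receptor-appropriate [3H] tracer. After filtration and washing in 50 mM Tris HCl pH 7.5, bound label was counted by scintillation. IC50 came from nonlinear regression and Ki from the Cheng-Prusoff equation.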

[2] = target: T2, A1 receptor (Homo sapiens, UniProt P30542); assay: Radioligand receptor binding assay, A1 receptor; settings: cell membranes overexpressing A1 receptor, read-out: Potency Ki A1
T2 construct: purchased
T2 sequence (P30542 1-326): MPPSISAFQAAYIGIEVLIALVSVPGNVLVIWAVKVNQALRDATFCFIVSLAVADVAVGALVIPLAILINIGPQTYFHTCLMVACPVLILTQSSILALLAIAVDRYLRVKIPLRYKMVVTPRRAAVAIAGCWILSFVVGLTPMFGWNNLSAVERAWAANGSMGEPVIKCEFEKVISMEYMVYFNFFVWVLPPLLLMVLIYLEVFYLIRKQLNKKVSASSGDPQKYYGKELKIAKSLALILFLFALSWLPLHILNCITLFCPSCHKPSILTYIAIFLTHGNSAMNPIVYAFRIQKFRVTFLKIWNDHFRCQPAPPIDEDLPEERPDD
In short: as §1

[3] = target: T3, A3 receptor (Homo sapiens, UniProt P0DMS8); assay: Radioligand receptor binding assay, A3 receptor; settings: cell membranes overexpressing A3 receptor, read-out: Potency Ki A3
T3 construct: purchased
T3 sequence (P0DMS8 1-318): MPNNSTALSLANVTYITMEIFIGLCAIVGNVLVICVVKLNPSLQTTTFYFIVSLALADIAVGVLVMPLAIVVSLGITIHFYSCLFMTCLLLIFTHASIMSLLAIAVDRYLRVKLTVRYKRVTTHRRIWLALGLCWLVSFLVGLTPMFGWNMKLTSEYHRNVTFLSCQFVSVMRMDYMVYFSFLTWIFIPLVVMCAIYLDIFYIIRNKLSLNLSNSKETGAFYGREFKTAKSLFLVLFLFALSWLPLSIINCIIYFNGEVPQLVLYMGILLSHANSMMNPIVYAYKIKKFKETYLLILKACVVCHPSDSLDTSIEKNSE
Procedure: Using conventional receptor binding assay techniques, Compounds 1-24 were assayed to determine binding activity at the A2A, A1, and A3 receptors with the results shown in Table 7.
Receptor binding affinity of Compounds 1-24 was measured using radioligand binding assays using commercially obtained cell membranes prepared from cell lines overexpressing the A2A, A1, or A3 receptors. Briefly, cell membrane preparations from cells expressing the specific receptor were mixed with the appropriate [^3H]-labeled tracer for the specific receptor and the test compound or a known inhibitor of receptor-ligand binding. Following 60 min incubation at room temperature to allow receptor-ligand complex formation, the complexes were collected by filtration, washed with 50 mM Tris HCl (pH 7.5) to remove radioligand that was not receptor-bound, and the remaining radioactivity determined by liquid scintillation counting. Specific radioligand binding was calculated for each test compound concentration and IC50 values were determined by non-linear, regression analysis. Inhibition constants (Ki) were calculated using the equation of Cheng and Prusoff using the observed IC50 of the tested compound, the concentration of radioligand employed in the assay and the experimentally determined values for the Kd of the ligand.

[4] = Brain-to-plasma ratio (B/P) after administration; assay type: in vivo, Sprague-Dawley rats; settings: Sprague-Dawley, rat, oral, 2.5 mg/kg; Table 6; brain-to-plasma ratio at 1 h
In short: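 Plasma pharmacokinetic parameters determined after oral (PO) administration; brain-to-plasma concentration ratio (B/P) used as the brain penetration measure.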

[5] = Plasma pharmacokinetic parameters following intravenous (IV) or oral (PO) administration in rats; assay type: in vivo, Sprague-Dawley rats; settings: male, Sprague-Dawley, rat, plasma, Table 6
In short: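 Fasted male Sprague-Dawley rats (230-250 g, n=2/group), dosed 0.5 mg/kg IV (jugular) or 2.5 mg/kg PO gavage in water. Plasma sampled 2–1440 min, analyzed by LC-MS/MS; non-compartmental analysis with nominal doses/times gave AUC, Cmax, Tmax, CL, Vss, MRTlast, F.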

T1 sequence (P29274 whole entry): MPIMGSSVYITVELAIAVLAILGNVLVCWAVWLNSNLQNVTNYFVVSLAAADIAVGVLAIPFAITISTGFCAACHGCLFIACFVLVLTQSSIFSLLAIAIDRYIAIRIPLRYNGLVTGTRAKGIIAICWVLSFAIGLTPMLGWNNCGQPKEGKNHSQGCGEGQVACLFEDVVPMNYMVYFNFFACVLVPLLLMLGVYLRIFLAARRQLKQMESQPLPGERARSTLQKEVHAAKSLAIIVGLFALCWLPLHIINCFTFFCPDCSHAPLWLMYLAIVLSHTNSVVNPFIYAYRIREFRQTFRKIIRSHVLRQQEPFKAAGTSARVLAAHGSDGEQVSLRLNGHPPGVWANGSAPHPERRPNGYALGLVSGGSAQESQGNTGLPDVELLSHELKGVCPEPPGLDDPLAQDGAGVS

Ki [1]: 0.004 µM | Ki [2]: > 100 µM | Ki [3]: > 10 µM | Kp at 1 h [4]: 0.06 | AUC ([5]; 2.5 mg/kg, oral (PO) administration essentially as described in Example 28): 1.2 µg·h/mL | clearance ([5]; intravenous, 0.5 mg/kg, essentially as described in Example 28): 1.2 L/h/kg | bioavailability ([5]; po, 2.5 mg/kg, oral (PO) administration essentially as described in Example 28): 58%
Structure (SMILES): [2H]C([2H])([2H])OC([2H])([2H])C([2H])([2H])Oc1ccc(N2CCN(C([2H])([2H])C([2H])([2H])N(c3cc4nc(-c5ncco5)nn4c(N)n3)C([2H])([2H])[2H])CC2)cc1 [Compound 16, N^7-(^2H3)methyl-N^7-[2-{4-[4-({2-[(^2H3)methyloxy](^2H4)ethyl}oxy)phenyl]piperazin-1-yl}(^2H4)ethyl]-2-(1,3-oxazol-2-yl)[1,2,4]triazolo[1,5-c]pyrimidine-5,7-diamine]
